Measurements reported in patent US20260167638A1, “PHARMACEUTICAL COMPOUND, SALTS THEREOF, FORMULATIONS THEREOF, AND METHODS OF MAKING AND USING SAME” (Genentech, Inc., priority 2018, published 2026).
“And” between values parts separate entries of the source, which are not always exact repeats. Equal entries are not always repeated. Where two headings read alike, the source gives them in different places.

How the values were obtained:
[1] = Dissolution and precipitation in pH 6.5 phosphate buffer at 37° C. containing HPMC; format: physicochemical
From the text: The inclusion of HPMC in the tablet of Example 16 was to maintain the supersaturation of Compound I API after its mono-tosylate salt dissolves. […]

[2] = Example 21 crossover pharmacokinetics of mono-tosylate and di-tosylate tablets in fasted dogs; format: in vivo, beagle dogs; parameters: Plasma concentration of Compound I at 0.25 hours: unit: ng/mL; conditions: Example 21, fasted dogs, 200 mg tablet PO
Description: Pharmacokinetics parameters of formulations of Compound I and its salts in dogs were determined by orally administering a test formulation tablet at 200 mg of active (Compound I or salt) per dog.
Blood samples were taken at various times after administration, plasma prepared, and submitted to analysis for parent drug using a qualified LC-MS-MS assay. Pharmacokinetics parameters derived from the plasma analytical data were determined using non-compartmental analysis.
Pharmacokinetics of Compound I were determined in pentagastrin-pretreated male beagle dogs following a single oral (PO) administration at 200 mg/tablet per dog in a 2-phase crossover designed study, with a washout period of at least 7 days in between each phase. Five male, non-naive, purebred beagle dogs were used in each phase of the 2-phase crossover study. All dogs were pretreated with pentagastrin (6 μg/kg intramuscular administrations) approximately 30 minutes before test article administration.
Two tablet formulations (mono-tosylate and di-tosylate, as described above) of test article were assessed. Animals were fasted overnight prior to PO dosing through approximately 4 hours post-dose. The tablet was administered orally, followed by approximately 10 mL of reverse osmosis water. Phase 1 animals were given tablets containing Compound I mono-tosylate, and phase 2 animals were given tablets containing Compound I di-tosylate salt. Blood samples were collected pre-dose and at 0.25, 0.5. 1. 2, 4, 8, 24, 36, and 48 hours after the oral dose. Plasma was harvested, and the concentration of Compound I in each plasma sample was determined by an LC/MS/MS assay. The assay lower limit of quantitation was 20 ng/mL for Compound I. Mean Compound I concentrations measured in plasma were used to construct semi-logarithmic plasma concentration-time curves (FIG. 1). Pharmacokinetic analysis was performed using non-compartmental methods.

[3] = Approximate solubility in MeOH/MTBE at room temperature; format: physicochemical; conditions: organic solvent or mixture
Description: The approximate solubility of mono-tosylate Type A was measured in MeOH/MTBE at room temperature. […] To achieve appropriate volumetric efficiency and yield, the starting concentration in MeOH was 250 mg/mL and the final ratio of the anti-solvent crystallization process in MeOH/MTBE (v/v) was 1:3.

[4] = individual subjects, LLOQ 20 ng/mL, mono-tosylate salt
[5] = individual subjects, mono-tosylate salt

For Cc1ccc(S(=O)(=O)O)cc1.Cn1cc(-c2cn(-c3ccc(OC(F)(F)F)cc3)c(=O)c3ncn(C)c23)cn1 [mono-tosylate, 1-methyl-7-(1-methyl-1H-pyrazol-4-yl)-5-(4-(trifluoromethoxy)phenyl)-1,5-dihydro-4H-imidazo[4,5-c]pyridin-4-one, mono-tosylate salt], the “Compound I concentration maintained” value ([1]; HPMC 5 μg/mL) was 160 µg/mL, the “maintenance of Compound I supersaturation” value ([1]; HPMC 1 or 2 μg/mL) was “did not substantially maintain Compound I supersaturation” and the “API concentration after dissolution” value ([1]; absence of HPMC, in 10 minutes) was 80 µg/mL. For the same molecule, the “Plasma concentration of Compound I at 48 hours” value ([2]; individual subjects, LLOQ 20 ng/mL) was “BLQ”, the “Plasma concentration of Compound I at 0.25 hours” value [2, 4] was 179 and 452 and 100 and 74.0 and 161 and the “Plasma concentration of Compound I at 0.5 hours” value [2, 4] was 1180 and 3040 and 1320 and 3170. For the same molecule, the “Plasma concentration of Compound I at 4 hours” value [2, 4] was 3550 and 5080 and 7990 and 10200 and 1850, the “Plasma concentration of Compound I at 8 hours” value [2, 4] was 1140 and 3110 and 5060 and 5380 and 378 and the “Plasma concentration of Compound I at 24 hours” value [2, 4] was 95.5 and 4080 and 252 and 1050 and 25.7. The “Plasma concentration of Compound I at 36 hours” value [2, 4] was “BLQ (3×) and 897 and 74.4”, the AUC0-last [2, 5] was 26900 ng·h/mL and 122000 ng·h/mL and 77900 ng·h/mL and 110000 ng·h/mL and 14000 ng·h/mL and the AUC0-rt [2, 5] was 27400 ng·h/mL and 123000 ng·h/mL and 79400 ng·h/mL and 110000 ng·h/mL and 14100 ng·h/mL. The Cmax [2, 5] was 3570 ng/mL and 5940 ng/mL and 9410 ng/mL and 10500 ng/mL and 2960 ng/mL, the “Plasma concentration of Compound I at 48 hours” value ([2]; mean, LLOQ 20 ng/mL) was “BLQ” and the AUC(0-t) ([2]; male, beagle, dog, plasma, po, 200 mg, mean) was 70200 ng·h/mL. It also gave an AUC ([2]; male, beagle, dog, plasma, po, 200 mg, mean, read-out: AUC0-rt) of 70900 ng·h/mL, a Cmax ([2]; male, beagle, dog, plasma, po, 200 mg, mean, read-out: Cmax) of 6480 ng/mL and a concentration at 0.25 h ([2]; male, beagle, dog, plasma, po, 200 mg/tablet per dog, mean, LLOQ 20 ng/mL, read-out: Plasma concentration of Compound I at 0.25 hours) of 193 ng/mL. It also gave a concentration at 0.5 h ([2]; male, beagle, dog, plasma, po, 200 mg/tablet per dog, mean, LLOQ 20 ng/mL, read-out: Plasma concentration of Compound I at 0.5 hours) of 1910 ng/mL, a concentration at 1 h ([2]; male, beagle, dog, plasma, po, 200 mg/tablet per dog, mean, LLOQ 20 ng/mL, read-out: Plasma concentration of Compound I at 1 hour) of 4690 ng/mL and a concentration at 2 h ([2]; male, beagle, dog, plasma, po, 200 mg/tablet per dog, mean, LLOQ 20 ng/mL, read-out: Plasma concentration of Compound I at 2 hours) of 6480 ng/mL. The concentration at 4 h ([2]; male, beagle, dog, plasma, po, 200 mg/tablet per dog, mean, LLOQ 20 ng/mL, read-out: Plasma concentration of Compound I at 4 hours) was 5730 ng/mL, the concentration at 8 h ([2]; male, beagle, dog, plasma, po, 200 mg/tablet per dog, mean, LLOQ 20 ng/mL, read-out: Plasma concentration of Compound I at 8 hours) was 3010 ng/mL and the concentration at 24 h ([2]; male, beagle, dog, plasma, po, 200 mg/tablet per dog, mean, LLOQ 20 ng/mL, read-out: Plasma concentration of Compound I at 24 hours) was 1100 ng/mL. It also gave a concentration at 36 h ([2]; male, beagle, dog, plasma, po, 200 mg/tablet per dog, mean, LLOQ 20 ng/mL, read-out: Plasma concentration of Compound I at 36 hours) of 486 ng/mL, a tmax ([2]; male, beagle, dog, plasma, mean, read-out: tmax) of 2 h and a solubility ([3]; MeOH/MTBE (v/v, 1:2), read-out: approximate solubility in MeOH/MTBE (v/v, 1:2)) of 9.3 to 18.6 mg/mL. The solubility ([3]; MeOH/MTBE (v/v, 1:3), read-out: approximate solubility in MeOH/MTBE (v/v, 1:3)) was < 5.4 mg/mL and the solubility ([3]; methanol, read-out: approximate solubility in MeOH) was 264 to 348 mg/mL.
